In patent US4400517A, “Phosphoric esters derived from 1,2,4-triazole having an insecticidal, nematocidal and acaricidal action, and their preparation” (priority 1976, dated 1983):
Like-named read-outs stand apart in the source and are kept apart here.

Legend:
[1] = test system: Pieris brassicae; assay: Biological activity on Pieris brassicae (Lepidoptera); assay type: in vivo; settings: 48 h
Method: (2) Biological activity on Pieris brassicae (Lepidotera)
Cut-off cauliflower leaves were sprinkled with an aqueous dispersion of the products under examination (see TABLE 5).
After drying, the leaves were infested with 5-day old larvae. The percentage of mortality of the larvae (untreated leaves=0) was determined after 48 hours from treatment.

[2] = test system: Tetranychus urticae; assay: Biological activity on adults of Tetranychus urticae (Acari); assay type: in vivo; settings: 24 h
Method: (5) Biological activity on adults of Tetranychus urticae (Acari)
Discs of bean leaves were infested with adult acari and then sprinkled with an aqueous dispersion of the products under examination (see Tables 4 and 5).
The mortality percentage was determined after 24 hours from treatment (untreated leaf discs, mortality=0).

[3] = test system: Culex pipiens; assay: Biological activity on Culex pipiens larvae (Diptera); assay type: in vivo; settings: 24 h
Method: (4) Biological activity on Culex pipiens (Diptera)
Into glasses containing an aqueous dispersion of the products under examination (see Tables 4 and 5) there were introduced mosquito larvae of third and fourth age.
The mortality percentage of the larvae (glasses containing pure water=0) was determined after 24 hours from treatment.

[4] = Toxicity on albino rats by oral administration; settings: rat, in vivo
[5] = test system: Leptinotarsa decemlineata; assay: Biological activity on Leptinotarsa decemlineata (Coleoptera); assay type: in vivo; settings: 48 h
Method: (3) Biological activity on Leptinotarsa decemlineata (Coleoptera)
Small potato plants grown in pots were infested with 4-day old larvae, and were then sprinkled with an aqueous dispersion of the products under examination (see Tables 4 and 5).
The mortality percentage (untreated small plants=0) was determined after 48 hours from treatment.

[6] = test system: Spodoptera littoralis; assay: Biological activity on Spodoptera littoralis (Lepidoptera); assay type: in vivo; settings: 48 h
Method: (7) Biological activity on Spodoptera littoralis (Lepidoptera)
Cut tobacco leaves were sprinkled with an aqueous dispersion of the products under examination (see Tables 4 and 5).
After drying, the leaves were infested with 5-day old larvae.
The percentage of mortality of the larvae was determined after 48 hours from treatment (untreated leaves, mortality=0).

[7] = test system: Blatta orientalis; assay: Biological activity on Blatta orientalis (Ortoptera); assay type: in vivo; settings: Blatta orientalis, 48 h, read-out: Activity (mortality class), Blatta O.
Method: (10) Biological activity on Blatta orientalis (Ortoptera)
The bottom and walls of glass crystallizers were treated uniformly with an acetonic solution of the products under examination (see Tables 4 and 5). After evaporation of the solvent, into each crystallizer were introduced ten 80-100 days old neanides. The crystallizers were then closed with a metal net cover. After 24 hours from the start of the treatment, the insects were transferred to similar untreated crystallizers, and there were appropriately nourished in conventional manner.
The percentage of mortality (untreated insects=0) was determined after 48 hours from the start of the treatment.

[8] = test system: Macrosiphum euphorbiae; assay: Biological activity on Macrosiphum euphorbiae (Aphides); assay type: in vivo; settings: potato plants, 24 h
Method: (1) Biological activity on Macrosiphum euphorbiae (Aphides)
Potato plants grown in pots were infested with adult females of aphides and, after several hours, were sprinked with an aqueous dispersion of the products under examination (see TABLE 5).
The percentage of mortality was assessed after 24 hours after the treatment (untreated plants=0).

[9] = test system: Tetranychus urticae; assay: Biological activity on Tetranychus urticae eggs (Acari); assay type: in vivo; settings: bean leaf discs, 144 h
Method: (6) Biological activity on Tetranychus urticae (Acari)
Small discs of bean leaves were infested with Acari eggs and were then sprinkled with an aqueous dispersion of the products under examination (see Table 5).
The mortality percentage was determined after 6 days from treatment (untreated leaf discs, mortality=0).

[10] = test system: Locusta M.; assay: Activity on Locusta M.; settings: in vivo
[11] = read-out: Activity (mortality class), Pieris B.
[12] = 0.01%o, Table 5, read-out: Activity (mortality class), Tetranychus U. (adults)
[13] = read-out: Activity (mortality class), Tetranychus U. (adults)
[14] = 0.02 ppm, Table 5, read-out: Activity (mortality class), Culex P. (larvae)
[15] = 2 ppm, Table 5, read-out: Activity (mortality class), Culex P. (larvae)
[16] = read-out: Activity (mortality class), Leptinotarsa D.
[17] = read-out: Activity (mortality class), Spodoptera L.
[18] = read-out: Activity (mortality class), Culex P. (larvae)
[19] = 1%o, Table 5, read-out: Activity (mortality class), Pieris B.
[20] = 1%o, Table 5, read-out: Activity (mortality class), Tetranychus U. (adults)
[21] = 0.05%o, Table 5, read-out: Activity (mortality class), Leptinotarsa D.
[22] = 1%o, Table 5, read-out: Activity (mortality class), Leptinotarsa D.
[23] = 0.05%o, Table 5, read-out: Activity (mortality class), Spodoptera L.
[24] = 1%o, Table 5, read-out: Activity (mortality class), Spodoptera L.

Structure (SMILES)	mortality at 0.1 % [1, 11] [%]	mortality at 0.001 % [2, 12] [%]	mortality at 0.1 % [2, 13] [%]	mortality at 2 ppm [3, 15] [%]	LD50 [4] [mg/kg]	mortality at 0.005 % [5, 16] [%]	mortality at 0.1 % [5, 16] [%]	mortality at 0.1 % [6, 17] [%]	mortality at 1 g/m2 [7] [%]	Activity (mortality class), Macrosiphum E. [8]	mortality at 0.001 % [2, 13] [%]	mortality at 0.02 ppm [3, 18] [%]	mortality at 2 ppm [3, 18] [%]	Activity (mortality class), Tetranychus U. (eggs) [9]	mortality at 0.1 % [1, 19] [%]	mortality at 0.1 % [2, 20] [%]	mortality at 0.005 % [5, 21] [%]	mortality at 0.1 % [5, 22] [%]	mortality at 0.01 g/m2 ([7]; 0,01 g/m^2, Table 5) [%]	mortality at 1 g/m2 ([7]; 1 g/m^2, Table 5) [%]	other results
CCOP(=S)(OCC)Oc1nc(C(Cl)=C(Cl)Cl)nn1C [M 8560]	100	100	100	100	1200	100	100	100	100	–	–	–	–	–	–	–	–	–	–	–	mortality at 0.001 % [1, 11]: 70 to 99%; mortality at 0.02 ppm [3, 14]: 10 to 69%; mortality at 0.005 % [6, 17]: 70 to 99%
C=C(C)c1nc(OP(=S)(OCC)OCC)n(C)n1 [M 8593]	100	–	100	–	–	–	100	100	100	++ (100% of mortality)	10 to 69	10 to 69	100	± (10-69% of mort.)	–	–	–	–	–	–	mortality at 0.01 g/m2 [7]: 70 to 99%
CC=C(Cl)c1nc(OP(=S)(OCC)OCC)n(C)n1 [M 8634]	–	10 to 69	–	100	1400	–	–	–	–	–	–	–	–	–	100	100	100	100	10 to 69	100	mortality at 0.005 % [6, 23]: 10 to 69%; mortality at 0.1 % [6, 24]: 100%
C=CCn1nc(C=C(Cl)Cl)nc1OP(=S)(OCC)OCC [M 8764]	–	–	100	–	–	100	100	100	–	++ (100% of mortality)	100	100	100	++ (100% of mortality)	100	–	–	–	–	100	Activity (mortality class), Locusta M. [10]: ++ (100% of mortality); mortality at 0.005 % [6, 17]: 100%
CCOP(=S)(OCC)Oc1nc(C=C(SC)SC)nn1C [M 8825]	–	100	–	100	–	–	–	–	–	–	–	–	–	–	100	100	100	100	10 to 69	100	mortality at 0.001 % ([1]; 0.01%o, Table 5, read-out: Activity (mortality class), Pieris B.): 0 to 9%; mortality at 0.02 ppm [3, 14]: 70 to 99%; mortality at 0.005 % [6, 23]: 10 to 69%; mortality at 0.1 % [6, 24]: 100%
CC=Cc1nc(OP(=S)(OCC)OCC)n(C(C)C)n1 [M 9137]	–	10 to 69	–	100	–	–	–	–	–	++ (100% of mortality)	–	–	–	++ (100% of mortality)	100	100	100	100	10 to 69	100	–
CCOP(=S)(OCC)Oc1nc(C(C)=C(Cl)Cl)nn1CC [M 9141]	100	–	100	–	–	100	100	100	100	++ (100% of mortality)	10 to 69	70 to 99	100	++ (100% of mortality)	–	–	–	–	–	–	Activity (mortality class), Locusta M. [10]: ++ (100% of mortality)
CCOP(=S)(OCC)Oc1nc(C(O)CSC)nn1-c1ccccc1 (centres unmarked) [M 9173]	100	–	100	–	–	–	100	100	100	++ (100% of mortality)	–	–	100	–	–	–	–	–	–	–	–
CCOP(=S)(OCC)Oc1nc(Cl)n(C(C)C)n1 [Miral®, Diethyl-(1-isopropyl-5-chloro-1,2,4-triazole-3-yl) phosphoro-thionate, reference compound]	–	–	–	–	60	–	–	–	–	–	–	–	–	–	–	–	–	–	–	–	–
